For one test, the system named is Ramos cells. The experiment in a line: Cell proliferation analysis for WM and lymphoma cell lines (CellTiter-Glo). Format: cell-based. Conditions: Homo sapiens, 72 hours. Background: In ATP-based viability assays light output follows the ATP content of the culture.
A further test deals with OCI-Ly19 cells. The description is as above. Format: cell-based. Conditions: Homo sapiens, 72 hours.
A further test concerns OCI-Ly3 cells. Described as above. The format is cell-based. Conditions: Homo sapiens, 72 hours.
A further test deals with PRCIWM-1 cells. Described as above. Format: cell-based. Conditions: 72 hours. As for the experimental part: CellTiter-Glo® Luminescent cell viability assay (Promega) was used to assess cell survival following treatment with an inhibitor compound of Formula (I) or (II) (e.g., 1-14). Various cell lines were used including Waldenström's macroglobulinemia (WM) cell lines (BCWM.1, MWCL-1, RPCI-WM1) and B-cell lymphoma cell lines (OCI-Ly3, Ramos, OCI-Ly19). Cells were seeded into 384 well plates with the EL406 Combination Washer Dispenser (BioTek Instruments, Inc.) and inhibitor compounds were injected into the cells culture media with the JANUS Automated Workstation (PerkinElmer Inc.). Cells were treated with a series diluted inhibitor compounds (20˜0.04 μM) for 72 hours at 37° C. Luminescent measurement is performed using the 2104 Envision® Multilabel Reader (PerkinElmer Inc.).

The test system of another test is MWCL-1 cells. The description is as above. Conditions: 72 hours. The format is cell-based.
For the next test, the system named is BCWM.1 cells. Described as above. Format: cell-based. Conditions: BCWM1; 72 hours.
In the next test the target is JAK3 (Homo sapiens (Human), UniProt P52333). The test is described as follows: Invitrogen Select Screening in vitro kinase assay. The format is biochemical.
The target in test [1] is T1, BMX (Homo sapiens (Human), UniProt P51813). The experiment in a line: Invitrogen Select Screening in vitro kinase assay. Format: biochemical.
In the next test the target is BTK (Homo sapiens (Human), UniProt Q06187). The test is described as follows: Invitrogen Select Screening in vitro kinase assay. The format is biochemical.
The target in the next test is mTOR (Homo sapiens (Human), UniProt P42345). The experiment in a line: Invitrogen Select Screening in vitro kinase assay. Format: biochemical. From the text: (§1) The in vitro activity of compounds of Formula (I) and (II) in inhibiting BMX and other kinases were obtained using an Invitrogen Select Screening assay as known in the art. The IC50 values determined from this assay are shown below.

In the next test the target is BLK (Homo sapiens (Human), UniProt P51451). The test is described as follows: Invitrogen Select Screening in vitro kinase assay. The format is biochemical.
Source text: as §1

The target of another test is TEC (Homo sapiens (Human), UniProt P42680). The experiment in a line: Invitrogen Select Screening in vitro kinase assay. Format: biochemical.
Source text: as §1

For test [2], the system named is RV-1 cells. The test is described as follows: Combination of I-14 with MK2206, dose-response in RV-1 cells. Conditions: with I-14.
Test [3] concerns Bmx- MEF cells stably overexpressing BmxWT. The test is described as follows: Wound healing assay. Conditions: preincubated 4 h; leading edges at 0 and 9 h. Format: cell-based, mouse. As for the experimental part: FIGS. 3A-B show the immunoblotting results where BMX (SiBMX) or control siRNA (SiCtrl) transfected LNCaP cells (FIG. 3A) or VCS2 cells (FIG. 3B) were serum starved for 72 h, serum was stimulated for the indicated times, and the whole cell lysates were immunoblotted. […] FIG. 3G is a bar graph showing the migrated distances where scratch wounds were introduced into confluent heterozygous for Bmx (Bmx^+/−), Bmx^+, or Bmx^− MEFs, and the leading edges were photographed at 0 and 9 h. The migrated distance was measured and normalized to #1 Bmx-group. Error bars depict standard error (SE) for three experiments (***: p<0.001). FIG. 3H is a bar graph showing the migrated distances where scratch wounds were introduced into confluent Bmx^− MEFs stably overexpressing BmxWT, BmxKD, or empty vector (EV), and the leading edges were photographed at 0 and 9 h. The migrated distance was measured and normalized to EV group. Error bar depict standard error (SE) for three independent experiments (*: p<0.05). FIG. 3I is a bar graph showing the migrated distances where Bmx^− MEF cells stably overexpressing BmxWT were preincubated with FAK inhibitor (PF562271) for 4 h. Scratch wounds were introduced into the cells, and the leading edges were photographed at 0 and 9 h. The migrated distance was measured and normalized to control group (Ctrl). […]

Test [4] addresses T1, BMX. The test is described as follows: BMX protein levels in RV-1 cells. Format: cell-based. Conditions: 72 h treatment, 5 μM. From the text:
Moreover, the depletion could be rescued upon stable overexpression of the C496S mutant BMX.

The target in another test is wild-type (WT) BMX (Homo sapiens (Human), UniProt P51813). The test is described as follows: IP kinase assay, BMX autophosphorylation. The format is biochemical. Conditions: FIG. 15. From the text: FIG. 15 confirms that the potency of the BMX inhibitors is due to covalent binding to cysteine 496.
Test [5] has as its system RV-1 cells. The test is described as follows: Anti-proliferation assay for prostate cancer cells (CellTiter-Glo). The format is cell-based.
Protocol: Data were normalized to control group (DMSO) and represented by the mean of at least two independent measurement with standard error <20%. GI50 were calculated using Prism 5.0 (GraphPad Software, San Diego, Calif.).
Test [6] relates to CD19+ B-cells from a Waldenstrom's macroglobulinemia patient. The test is described as follows: Apoptosis analysis of primary patient cells (Annexin V/propidium iodide). Conditions: patient after six months of ibrutinib treatment; FIG. 22. The format is cell-based, human. As for the experimental part: Primary patient WM cells genotyped for MYD88 L265P, as well as MYD88 WT healthy donor CD19-selected peripheral blood mononuclear cells (PBMCs) were treated with and without inhibitor compounds. Cells were incubated at 37° C. with 0.01˜4 μM of an inhibitor compound of Formula (I) or (II) (e.g., 11-4). Apoptosis analysis was performed using Annexin V-FITC/Propidium iodide staining with the Apoptosis Detection Kit I (BD Pharmingen). 1×10^6/well cells were treated in 24 well plates for˜24 hours with inhibitor compounds or corresponding controls. A minimum of 10,000 events were acquired using a BD™ FACSCanto II flow cytometer and analyzed with BD FACS DIVA Software.

Values joined by “and” are separate entries in the source; they are usually repeats but may differ in a detail not shown here. Equal entries are not always repeated. Some results are limits rather than exact numbers.

As usually defined, the EC50 is the midpoint of the concentration-response curve. For orientation: IC50 means the concentration that inhibits the measured activity by half.

BTK, sequence (Q06187 whole entry): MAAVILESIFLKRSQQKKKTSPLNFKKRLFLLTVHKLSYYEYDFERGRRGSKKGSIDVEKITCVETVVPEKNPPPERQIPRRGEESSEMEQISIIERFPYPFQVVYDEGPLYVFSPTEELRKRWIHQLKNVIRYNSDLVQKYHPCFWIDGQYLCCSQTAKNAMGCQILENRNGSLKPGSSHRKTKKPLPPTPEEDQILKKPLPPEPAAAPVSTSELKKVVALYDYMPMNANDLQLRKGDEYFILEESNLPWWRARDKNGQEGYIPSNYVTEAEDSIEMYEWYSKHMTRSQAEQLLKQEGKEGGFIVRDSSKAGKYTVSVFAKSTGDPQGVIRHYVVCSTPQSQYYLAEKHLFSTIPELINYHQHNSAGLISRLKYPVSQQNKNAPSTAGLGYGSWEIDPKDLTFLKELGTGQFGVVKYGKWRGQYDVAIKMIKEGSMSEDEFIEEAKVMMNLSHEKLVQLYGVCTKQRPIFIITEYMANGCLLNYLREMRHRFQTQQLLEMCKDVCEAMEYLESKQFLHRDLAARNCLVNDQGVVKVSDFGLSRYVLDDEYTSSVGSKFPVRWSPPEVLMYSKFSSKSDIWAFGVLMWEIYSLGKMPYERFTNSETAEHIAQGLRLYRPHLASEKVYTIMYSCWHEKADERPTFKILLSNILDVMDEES
T1 sequence (P51813 whole entry): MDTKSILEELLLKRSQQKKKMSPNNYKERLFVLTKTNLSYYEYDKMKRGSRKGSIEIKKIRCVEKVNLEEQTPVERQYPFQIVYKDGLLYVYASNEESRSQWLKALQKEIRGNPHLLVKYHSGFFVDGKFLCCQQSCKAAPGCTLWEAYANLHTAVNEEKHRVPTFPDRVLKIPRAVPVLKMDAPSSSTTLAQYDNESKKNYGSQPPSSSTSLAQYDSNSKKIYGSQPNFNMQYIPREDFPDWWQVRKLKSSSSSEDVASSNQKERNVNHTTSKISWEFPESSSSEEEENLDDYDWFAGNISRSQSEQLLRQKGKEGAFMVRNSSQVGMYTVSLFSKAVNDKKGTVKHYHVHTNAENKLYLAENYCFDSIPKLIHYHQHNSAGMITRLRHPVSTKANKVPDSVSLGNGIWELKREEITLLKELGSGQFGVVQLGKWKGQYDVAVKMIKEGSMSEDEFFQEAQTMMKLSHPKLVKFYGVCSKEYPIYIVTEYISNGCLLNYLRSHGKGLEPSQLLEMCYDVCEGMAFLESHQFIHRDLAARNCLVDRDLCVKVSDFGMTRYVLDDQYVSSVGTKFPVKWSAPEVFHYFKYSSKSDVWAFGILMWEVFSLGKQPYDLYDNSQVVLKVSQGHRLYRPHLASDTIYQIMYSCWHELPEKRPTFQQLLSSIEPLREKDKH
JAK3, sequence (P52333 whole entry): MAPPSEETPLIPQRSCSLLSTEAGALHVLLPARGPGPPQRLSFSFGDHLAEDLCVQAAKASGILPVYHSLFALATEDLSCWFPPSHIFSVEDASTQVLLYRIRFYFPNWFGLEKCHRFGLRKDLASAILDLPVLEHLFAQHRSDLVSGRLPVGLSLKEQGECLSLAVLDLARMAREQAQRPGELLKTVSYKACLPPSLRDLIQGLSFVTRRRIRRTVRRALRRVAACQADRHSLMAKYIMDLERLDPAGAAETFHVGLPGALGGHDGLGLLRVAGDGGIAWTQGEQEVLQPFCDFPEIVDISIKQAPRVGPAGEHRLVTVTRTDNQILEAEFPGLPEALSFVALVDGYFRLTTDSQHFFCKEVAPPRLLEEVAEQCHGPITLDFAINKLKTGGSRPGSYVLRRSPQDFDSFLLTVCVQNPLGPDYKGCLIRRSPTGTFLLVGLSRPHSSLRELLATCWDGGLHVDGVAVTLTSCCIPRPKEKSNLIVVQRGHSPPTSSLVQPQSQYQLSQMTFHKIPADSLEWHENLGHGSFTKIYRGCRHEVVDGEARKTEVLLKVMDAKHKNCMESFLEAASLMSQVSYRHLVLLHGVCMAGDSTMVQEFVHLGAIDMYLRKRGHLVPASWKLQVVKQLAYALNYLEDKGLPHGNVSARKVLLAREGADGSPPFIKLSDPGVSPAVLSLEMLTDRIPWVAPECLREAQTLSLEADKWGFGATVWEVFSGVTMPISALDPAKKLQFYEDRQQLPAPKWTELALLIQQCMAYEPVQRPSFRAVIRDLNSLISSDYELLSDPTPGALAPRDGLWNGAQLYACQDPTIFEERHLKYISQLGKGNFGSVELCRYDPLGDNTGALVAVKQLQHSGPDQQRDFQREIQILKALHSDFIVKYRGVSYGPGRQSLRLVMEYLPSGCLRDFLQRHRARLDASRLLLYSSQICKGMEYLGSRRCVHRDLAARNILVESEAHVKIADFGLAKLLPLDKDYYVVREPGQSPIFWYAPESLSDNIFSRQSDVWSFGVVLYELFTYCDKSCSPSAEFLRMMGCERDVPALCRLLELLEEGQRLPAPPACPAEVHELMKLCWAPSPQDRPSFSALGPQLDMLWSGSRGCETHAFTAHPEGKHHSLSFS
BLK, sequence (P51451 whole entry): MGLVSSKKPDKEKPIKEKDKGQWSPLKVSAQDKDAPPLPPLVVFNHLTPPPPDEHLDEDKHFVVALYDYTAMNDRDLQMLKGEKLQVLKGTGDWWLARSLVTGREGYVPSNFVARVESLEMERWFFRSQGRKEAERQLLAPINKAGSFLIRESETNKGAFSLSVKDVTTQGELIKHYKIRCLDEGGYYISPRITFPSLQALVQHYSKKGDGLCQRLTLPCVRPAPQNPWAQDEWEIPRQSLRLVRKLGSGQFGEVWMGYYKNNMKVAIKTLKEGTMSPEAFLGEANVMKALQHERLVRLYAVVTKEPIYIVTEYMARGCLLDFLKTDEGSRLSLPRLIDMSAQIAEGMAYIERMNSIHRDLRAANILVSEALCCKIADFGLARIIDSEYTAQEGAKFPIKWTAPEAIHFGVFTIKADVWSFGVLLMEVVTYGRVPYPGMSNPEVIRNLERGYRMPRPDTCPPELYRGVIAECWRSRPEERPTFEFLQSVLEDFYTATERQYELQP
TEC, sequence (P42680 whole entry): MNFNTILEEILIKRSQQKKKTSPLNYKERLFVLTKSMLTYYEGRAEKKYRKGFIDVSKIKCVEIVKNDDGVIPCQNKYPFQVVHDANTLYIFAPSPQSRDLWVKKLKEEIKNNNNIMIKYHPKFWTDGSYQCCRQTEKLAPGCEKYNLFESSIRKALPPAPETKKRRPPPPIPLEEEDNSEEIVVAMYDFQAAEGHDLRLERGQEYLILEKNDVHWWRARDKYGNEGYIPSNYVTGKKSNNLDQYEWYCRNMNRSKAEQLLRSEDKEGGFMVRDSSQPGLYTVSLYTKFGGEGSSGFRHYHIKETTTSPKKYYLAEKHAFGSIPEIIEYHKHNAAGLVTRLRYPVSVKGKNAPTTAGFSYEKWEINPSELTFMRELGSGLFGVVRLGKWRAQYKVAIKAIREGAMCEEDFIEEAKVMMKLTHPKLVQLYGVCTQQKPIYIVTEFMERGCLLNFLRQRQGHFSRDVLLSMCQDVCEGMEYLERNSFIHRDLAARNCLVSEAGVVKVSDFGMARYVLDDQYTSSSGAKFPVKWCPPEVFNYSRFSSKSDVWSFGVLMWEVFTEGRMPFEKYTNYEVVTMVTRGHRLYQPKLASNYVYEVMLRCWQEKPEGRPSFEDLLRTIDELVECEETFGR
wild-type (WT) BMX, sequence (P51813 whole entry): as the sequence (P51813 whole entry) above

Turning to `C=CC(=O)Nc1cc(-n2c(=O)ccc3cnc4ccc(Nc5ccc6cccnc6c5)cc4c32)ccc1C` [I-28], the half-maximal effective concentration (EC50) in the test with Ramos cells is 3430 nM; with OCI-Ly19 cells it was 1050 nM; in the test on OCI-Ly3 cells it was 3590 nM; in the test with PRCIWM-1 cells, 691 nM; in the test with MWCL-1 cells it was 7490 nM; with BCWM.1 cells, 4440 nM.
Take `C=CC(=O)Nc1cc(-n2c(=O)ccc3cnc4ccc(-c5cnn(S(=O)(=O)c6ccccc6)c5)cc4c32)ccc1C` [II-23]: the EC50 amounted to 872 nM in the test with Ramos cells; 454 nM with OCI-Ly19 cells; 408 nM in the test on OCI-Ly3 cells; 86 nM in the test on PRCIWM-1 cells; 1550 nM in the test with MWCL-1 cells; 643 nM in the test on BCWM.1 cells.
`C=CC(=O)N1CCc2ccc(-n3c(=O)ccc4cnc5ccc(-c6cn[nH]c6)cc5c43)cc21` [II-14]: the IC50 was 2150 nM against JAK3; 8.75 nM and 9 nM on BMX [1]; 12 nM against BTK; 209 nM against mTOR; 247 nM against BLK; 57 nM against TEC. For the same molecule, the 50% effective concentration (EC50) came out at 360 nM in the test on Ramos cells; 160 nM in the test with OCI-Ly19 cells; 500 nM with OCI-Ly3 cells; 650 nM with MWCL-1 cells; 320 nM in the test with BCWM.1 cells.
Consider `NC1(c2ccc(-c3nc4ccn5c(=O)[nH]nc5c4cc3-c3ccccc3)cc2)CCC1` [MK2206], for which the “MK2206 concentration that potentiates the antiproliferative activity of I-14” value with RV-1 cells [2] is no more than 25 nM.
As for `C=CC(=O)Nc1cc(-n2c(=O)ccc3cnc4ccc(Nc5ccc6ncccc6c5)cc4c32)ccc1C` [I-29], the EC50 in the test with Ramos cells is 2570 nM; in the test with OCI-Ly19 cells it was 390 nM; in the test on OCI-Ly3 cells, 3080 nM; in the test with PRCIWM-1 cells, 528 nM; in the test with MWCL-1 cells it was 7290 nM; with BCWM.1 cells it was 2200 nM.
For `C=CC(=O)N1CCc2ccc(-n3c(=O)ccc4cnc5ccc(-c6ccc(N)nc6)cc5c43)cc21` [II-13], the IC50 at JAK3 was 5640 nM; on BMX [1] it was 13.3 nM and 13 nM; at BTK, 6 nM; against mTOR, 98 nM; against BLK it was 300 nM; at TEC it was 27 nM. For the same molecule, the EC50 worked out at 1350 nM with Ramos cells; 100 nM in the test with OCI-Ly19 cells; 1670 nM in the test on OCI-Ly3 cells; 2470 nM with MWCL-1 cells; 770 nM in the test on BCWM.1 cells.
`C=CC(=O)Nc1cc(-n2c(=O)ccc3cnc4ccc(Nc5ccc6cnccc6c5)cc4c32)ccc1C` [I-27]: the EC50 with Ramos cells worked out at 6280 nM; in the test on OCI-Ly19 cells, 374 nM; in the test with OCI-Ly3 cells it was 2590 nM; in the test on PRCIWM-1 cells, 345 nM; in the test on MWCL-1 cells it was 9150 nM; in the test with BCWM.1 cells, 1350 nM.
`C=CC(=O)Nc1cc(-n2c(=O)ccc3cnc4ccc(-c5ccc(N)nc5)cc4c32)ccc1C` [II-5]: the concentration for half-maximal inhibition (IC50) is 12.9 nM and 13 nM against BMX [1]; 16 nM at BTK; 17 nM against mTOR. Further, the concentration giving a half-maximal response (EC50) in the test on Ramos cells worked out at 872 nM; with OCI-Ly19 cells it was 454 nM; in the test on OCI-Ly3 cells, 408 nM; in the test with PRCIWM-1 cells, 86 nM; in the test with MWCL-1 cells, 1550 nM; with BCWM.1 cells, 643 nM.
As to `CN(c1ncccc1CNc1nc(Nc2ccc3c(c2)CC(=O)N3)ncc1C(F)(F)F)S(C)(=O)=O` [PF562271], the “stimulatory effect of BmxWT on wound healing migration” value in test [3] is “blocked”.
Regarding `C=CC(=O)Nc1cc(-n2c(=O)ccc3cnc4ccc(Nc5ccc6ccncc6c5)cc4c32)ccc1C` [I-26], the EC50 in the test with Ramos cells turned out to be 3830 nM; in the test on OCI-Ly19 cells, 659 nM; in the test with OCI-Ly3 cells it was 3340 nM; with PRCIWM-1 cells, 663 nM; with MWCL-1 cells, 6820 nM; in the test on BCWM.1 cells it was 3580 nM.
For `CCC(=O)Nc1cc(-n2c(=O)ccc3cnc4ccc(-c5ccc(NS(C)(=O)=O)cc5)cc4c32)ccc1C` [I-14R], the “BMX protein levels in RV-1 cells” value on BMX [4] was “not”. The “concentration inhibiting autophosphorylation of wild-type BMX” value on wild-type (WT) BMX was > 10,000 nM. Moreover, the “concentration with antiproliferative effects against RV-1 cells” value with RV-1 cells [5] was no less than 10 µM.
Take `C=CC(=O)N1CCc2ccc(-n3c(=O)ccc4cnc5ccc(-c6cnn(C)c6)cc5c43)cc21` [II-4]: the concentration giving a half-maximal response (EC50) was 30 nM with OCI-Ly19 cells, 190 nM in the test on OCI-Ly3 cells, 190 nM with MWCL-1 cells and 120 nM in the test with BCWM.1 cells. In test [6], the “killing of ex vivo CD19+ B-cells” value was “effectively killed ex vivo cells”.

The values are drawn from US10000483B2, “Bone marrow on X chromosome kinase (BMX) inhibitors and uses thereof” (Dana-Farber Cancer Institute, Inc., priority 2012, dated 2018).
